One data set addresses T1, rat CTR (Rattus norvegicus, UniProt P32214).
T1 construct: expressed in transfected cells; host or cells: BHK tk-ts 13, transient (FuGENE 6)
T1 sequence (P32214 25-479 isoform P32214-2 limits assumed): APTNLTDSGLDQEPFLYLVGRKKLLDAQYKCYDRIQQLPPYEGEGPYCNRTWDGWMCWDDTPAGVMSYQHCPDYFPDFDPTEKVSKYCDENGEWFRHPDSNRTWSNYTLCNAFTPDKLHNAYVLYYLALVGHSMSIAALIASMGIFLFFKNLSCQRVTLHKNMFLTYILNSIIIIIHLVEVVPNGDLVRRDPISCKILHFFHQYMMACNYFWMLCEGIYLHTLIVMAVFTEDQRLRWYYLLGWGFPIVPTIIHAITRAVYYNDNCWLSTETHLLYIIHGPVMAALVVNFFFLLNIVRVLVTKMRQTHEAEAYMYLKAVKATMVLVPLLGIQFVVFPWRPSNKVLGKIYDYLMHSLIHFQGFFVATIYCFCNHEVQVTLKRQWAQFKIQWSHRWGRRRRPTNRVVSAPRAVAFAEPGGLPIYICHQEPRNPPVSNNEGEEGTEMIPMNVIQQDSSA
The data set is described as follows: cAMP FlashPlate assay, rat CTR. The class given is cell-based. As to conditions: cAMP (rat receptor assay).

In the next data set the target is T2, hCTR (Homo sapiens, UniProt P30988).
T2 sequence (P30988 25-474): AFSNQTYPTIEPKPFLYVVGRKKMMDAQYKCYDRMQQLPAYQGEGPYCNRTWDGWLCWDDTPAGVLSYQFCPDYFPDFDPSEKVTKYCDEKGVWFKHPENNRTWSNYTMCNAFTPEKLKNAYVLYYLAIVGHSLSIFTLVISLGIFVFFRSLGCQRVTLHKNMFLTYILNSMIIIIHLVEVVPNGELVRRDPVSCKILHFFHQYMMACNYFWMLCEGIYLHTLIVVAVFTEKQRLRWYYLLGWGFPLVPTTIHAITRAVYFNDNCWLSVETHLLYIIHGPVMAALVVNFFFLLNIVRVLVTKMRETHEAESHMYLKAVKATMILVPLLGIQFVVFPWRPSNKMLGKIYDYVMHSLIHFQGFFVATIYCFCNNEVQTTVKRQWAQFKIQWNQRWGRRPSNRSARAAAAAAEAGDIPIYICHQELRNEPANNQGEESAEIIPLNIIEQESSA
The data set is described as follows: cAMP-responsive element luciferase reporter assay, human CTR. The settings on record: luciferase (human receptor assay). The class given is cell-based.

The next data set concerns the target T3, rat AMY3R (Rattus norvegicus, UniProt P32214+Q9JJ73).
T3 construct: expressed in transfected cells; host or cells: BHK tk-ts 13, transient co-transfection (FuGENE 6)
T3 sequence (P32214 25-479 isoform P32214-2 limits assumed): T1 sequence (P32214 25-479 isoform P32214-2 limits assumed)
T3 sequence (Q9JJ73 23-147 partner): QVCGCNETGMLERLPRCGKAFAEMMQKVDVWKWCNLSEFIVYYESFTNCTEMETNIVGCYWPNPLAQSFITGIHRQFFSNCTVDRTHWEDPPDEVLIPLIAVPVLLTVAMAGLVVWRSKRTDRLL
The data set is described as follows: cAMP FlashPlate assay, rat AMY3R. It is filed as cell-based. As to conditions: for EC50: cAMP (rat receptor assay).

In a further data set the target is T4, hAMY3R (Homo sapiens, UniProt O60896+P30988).
T4 sequence (P30988 25-474): T2 sequence (P30988 25-474)
T4 sequence (O60896 24-148 partner): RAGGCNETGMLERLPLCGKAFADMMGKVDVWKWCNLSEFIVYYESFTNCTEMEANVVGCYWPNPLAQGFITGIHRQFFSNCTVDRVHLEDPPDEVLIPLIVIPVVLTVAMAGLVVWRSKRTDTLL
Nature of the data set: cAMP-responsive element luciferase reporter assay, human AMY3R. The class given is cell-based. On the set-up: expressed in transfected cells. As to conditions: for EC50: luciferase (human receptor assay). (In general: Reporter assays use an easily measured gene product as a stand-in for the process of interest.)

Data set [1] can be described thus: Solubility versus pH profile.
A short description of data set [2]: ThT assay: fibril formation propensity and peptide recovery. The class given is physicochemical. As to the method:
The stability properties of the individual amylin analogs were assessed with respect to their propensity toward fibril formation, expressed as the time until fibril formation (measured as Lag time) and loss of dissolved peptide (assessed as Peptide Recovery). […] Samples were prepared as described previously (using the same methodology and materials) for a novel amylin-based analog candidate compound.[7]
Briefly, each compound was dissolved in 10 mM of glycylglycine buffer (pH 4.0) or HEPES buffer (pH 7.5) to a concentration of 250 μM, followed by ThT stock solution to a final concentration of 1 μM. Each solution was aliquoted into a microtiter plate (200 μL/well) sealed with a transparent adhesive sheet. Mechanical stress was applied at 37 °C incubation (960 rpm, 1 mm amplitude) with 20 min fluorescence reading intervals for 45 h (filters: excitation 444 nm; emission 485 nm). Each peptide was tested in experiments consisting of four replicas (e.g., four wells on the same plate), and the lag time of each replica was determined by visual inspection of the fluorescence-versus-time plot. For wells where no fibril formation could be detected, the lag time was set longer than the test period (>45 h). The lag time of the peptide was set to the lowest lag time of the four replicates (conservative estimate). Some of the peptides were tested in more than one experiment, and the lag time results given in Tables 6 and 9 represent the average of these experiments. The ThT time course data given in Supporting Information represent the average and SEM of each experiment.[40] After analysis, wells representing individual replicas were pooled, and the residual soluble peptide was isolated using centrifugation (20,000 g/30 min at room temperature) followed by […] filtration. The amount of residual dissolved peptide was determined using an HPLC with a flow rate of 2 mL/min at 30 °C and 215/276 nm detection. A gradient combining eluent A (7.7% w/w acetonitrile, 200 mM Na2SO4, 20 mM NaH2PO4, 20 mM Na2HPO4, pH 7.2) and eluent B (65.5% w/w acetonitrile) was applied. The amount of residual dissolved peptide was reported on a relative scale (Peptide Recovery) to the amount of dissolved peptide prior to mechanical stress.

Data set [3] can be described thus: HMWP content by size-exclusion chromatography. The settings on record: analogs 1–9 (pH 7.5 series); covalent dimers and polymers prior to fibril formation testing, SEC, % of total absorbance area at 215 nm. It is filed as physicochemical. As to the method: The stability properties of the individual amylin analogs were assessed with respect to their propensity toward amyloid fibril formation. The relative amount of covalent dimers and polymers (HMWP) present prior to fibril formation testing was measured as a control for the potential inhibitory effect of HMWP on fibril formation propensity as reported elsewhere.[39]
Elution was performed under isocratic conditions with the following mobile phase prepared in Milli-Q water (Millipore A/S): 0.5 M NaCl, 10 mM sodium dihydrogen monohydrate, 5 mM ortho-phosphoric acid, 50% (v/v) 2-propanol. The amount of HMWP was determined as the absorbance area of the corresponding peaks given in percentage of the total absorbance area. The molar extinction coefficients of the molecules eluting in the HMWP fraction and the main peak was assumed to be equal.
Background: SEC sorts molecules by how far they enter the pores of the column.

For a further data set, the system named is cAMY3R. The data set is described as follows: Species-specific cAMP assay, cAMY3R. As to conditions: cAMP HTRF, transiently transfected BHK cells, 30 min room temperature, five experiments. (Cyclic AMP is a second messenger, typically raised through Gs and lowered through Gi signalling.)
Another data set deals with cAMY1R. The data set is described as follows: Species-specific cAMP assay, cAMY1R. As to conditions: cAMP HTRF, transiently transfected BHK cells, 30 min room temperature, five experiments.
Another data set has as its system cCTR. The data set is described as follows: Species-specific cAMP assay, cCTR. The settings on record: cAMP HTRF, transiently transfected BHK cells, 30 min room temperature, five experiments.

Where two headings read alike, the source gives them in different places. Numbered stars: 1 amine (or outer) side, 2 acyl side, 3 side chain; on linkers, the order of the positions; unused ones are H or OH. Bridge positions count the residues as written; N and C are the ends. Side chains are listed from the residue outwards. Peptide text beside a SMILES is read from it. * marks the point of attachment. C20 diacid = O=C(O)CCCCCCCCCCCCCCCCCCC(=O)*; γGlu = O=C(O)[C@H](CCC(=O)[*:2])N[*:1] Some results are limits rather than exact numbers.

In general, solubility (kinetic) refers to solubility judged after dilution from a stock solution rather than from solid. For `CC(C)C[C@H](NC(=O)[C@H](CCCNC(=N)N)NC(=O)[C@H](CCC(N)=O)NC(=O)[C@@H](NC(=O)[C@H](C)NC(=O)[C@@H]1CSSC[C@H](NC(=O)[C@@H](N)CCCCNC(=O)CC[C@H](NC(=O)CCCCCCCCCCCCCCCCCCC(=O)O)C(=O)O)C(=O)N[C@@H](CC(N)=O)C(=O)N[C@@H]([C@@H](C)O)C(=O)N[C@@H](C)C(=O)N[C@@H]([C@@H](C)O)C(=O)N1)[C@@H](C)O)C(=O)N[C@@H](C)C(=O)N[C@@H](CC(=O)O)C(=O)N[C@@H](Cc1ccccc1)C(=O)N[C@@H](CC(C)C)C(=O)N[C@@H](CCCNC(=N)N)C(=O)N[C@@H](Cc1c[nH]cn1)C(=O)N[C@@H](CO)C(=O)N[C@@H](CO)C(=O)N[C@@H](CCC(N)=O)C(=O)N[C@@H](CC(N)=O)C(=O)N[C@@H](Cc1ccccc1)C(=O)NCC(=O)N[C@@H](C)C(=O)N1CCC[C@H]1C(=O)N[C@@H](CC(C)C)C(=O)N[C@@H](CO)C(=O)N[C@@H](CO)C(=O)N[C@H](C(=O)N1CCC[C@H]1C(=O)N[C@H](C(=O)NCC(=O)N[C@@H](CO)C(=O)N[C@@H](CC(=O)O)C(=O)N[C@H](C(=O)N[C@@H](Cc1ccc(O)cc1)C(N)=O)[C@@H](C)O)C(C)C)[C@@H](C)O` [Peptide 1] (H-K([γGlu-C20 diacid])CNTATCATQRLADFLRHSSQNFGAPLSSTPVGSDTY-NH2; disulfide 2-7), the EC50 on rat CTR (Tables S12 and S14, read-out: rCTR pEC50 (converted)) is 14500 pM; on rat CTR (transiently transfected BHK tk-ts 13 cells, FlashPlate, 30 min room temperature, 2% HSA, read-out: rCTR EC50), 14300 pM; on hCTR (Tables S12 and S14, read-out: hCTR pEC50 (converted)), 692 pM; at hCTR (BHK cells stably expressing hCTR and CRE-luciferase, 3 h, 37 °C, 10% FBS, read-out: hCTR EC50), 697 pM; on rat AMY3R (Tables S12 and S14, read-out: rAMY3R pEC50 (converted)), 468 pM; at rat AMY3R (transiently transfected BHK tk-ts 13 cells, FlashPlate, 30 min room temperature, 2% HSA, read-out: rAMY3R EC50) it was 463 pM. Further, the EC50 at hAMY3R (Tables S12 and S14, read-out: hAMY3R pEC50 (converted)) is 182 pM; at hAMY3R (BHK cells stably expressing hCTR+RAMP3 and CRE-luciferase, 3 h, 37 °C, 10% FBS, read-out: hAMY3R EC50), 180 pM. Moreover, the “ratio rCTR/rAMY3R” value at rat AMY3R (ratio of cAMP EC50 values) amounted to 31. On hAMY3R (ratio of luciferase EC50 values), the “ratio hCTR/hAMY3R” value amounted to 3.9. Further, the kinetic solubility was not below 200 µM in data set [1] (bis-tris-propane buffer, pH 6, aqueous buffer); not below 200 µM in data set [1] (bis-tris-propane buffer, pH 6.5, aqueous buffer); not below 200 µM in data set [1] (bis-tris-propane buffer, pH 7, aqueous buffer); not below 200 µM in data set [1] (bis-tris-propane buffer, pH 7.5, aqueous buffer); not below 200 µM in data set [1] (bis-tris-propane buffer, pH 8, aqueous buffer); not below 200 µM in data set [1] (lactate buffer, pH 4, aqueous buffer). The compound also gave a solubility (kinetic) in [1] (lactate buffer, pH 5, aqueous buffer) not below 200 µM. The “ThT, pH 7.5 lag-time” value in [2] (250 μM peptide, 10 mM HEPES pH 7.5, 1 μM ThT, 37 °C, 960 rpm, 45 h, lowest of four replicas, average of experiments) is given as more than 45 h. In [2] (pH 7.5, residual dissolved peptide after 45 h of shaking, centrifugation and 0.22 μm filtration, HPLC, relative to amount before stress), this compound came in with a recovery of 100%. The HMWP in data set [3] was determined as 7%.
`CC(C)C[C@H](NC(=O)[C@H](CCCCN)NC(=O)CNC(=O)[C@H](CC(C)C)NC(=O)[C@@H](NC(=O)[C@@H]1CSSC[C@H](N)C(=O)N[C@@H](CO)C(=O)N[C@@H](CC(N)=O)C(=O)N[C@@H](CC(C)C)C(=O)N[C@@H](CO)C(=O)N[C@@H]([C@@H](C)O)C(=O)N1)C(C)C)C(=O)N[C@@H](CO)C(=O)N[C@@H](CCC(N)=O)C(=O)N[C@@H](CCC(=O)O)C(=O)N[C@@H](CC(C)C)C(=O)N[C@@H](Cc1c[nH]cn1)C(=O)N[C@@H](CCCCN)C(=O)N[C@@H](CC(C)C)C(=O)N[C@@H](CCC(N)=O)C(=O)N[C@H](C(=O)N[C@@H](Cc1ccc(O)cc1)C(=O)N1CCC[C@H]1C(=O)N[C@@H](CCCNC(=N)N)C(=O)N[C@H](C(=O)N[C@@H](CC(N)=O)C(=O)N[C@H](C(=O)NCC(=O)N[C@@H](CO)C(=O)NCC(=O)N[C@H](C(=O)N1CCC[C@H]1C(N)=O)[C@@H](C)O)[C@@H](C)O)[C@@H](C)O)[C@@H](C)O` [sCT, salmon calcitonin, reference compound]: in the data set with cAMY3R, the “cAMY3R pEC50” value is listed as 11.16. The “cAMY1R pEC50” value in the data set on cAMY1R is on record as 10.61. For the same compound, in the data set on cCTR, the “cCTR pEC50” value is listed as 11.27.
